Laboratory results published in patent US20230277630A1, “METHODS AND COMPOSITIONS FOR TREATING AMYOTROPHIC LATERAL SCLEROSIS” (Amylyx Pharmaceuticals, Inc., priority 2022, published 2023).

What was measured:
OCT2 [1] = molecular target: T1, OCT2 (Homo sapiens, UniProt O15244); test: in vitro; conditions: probe MPP+ (5 μM)
T1 sequence (O15244 1-555): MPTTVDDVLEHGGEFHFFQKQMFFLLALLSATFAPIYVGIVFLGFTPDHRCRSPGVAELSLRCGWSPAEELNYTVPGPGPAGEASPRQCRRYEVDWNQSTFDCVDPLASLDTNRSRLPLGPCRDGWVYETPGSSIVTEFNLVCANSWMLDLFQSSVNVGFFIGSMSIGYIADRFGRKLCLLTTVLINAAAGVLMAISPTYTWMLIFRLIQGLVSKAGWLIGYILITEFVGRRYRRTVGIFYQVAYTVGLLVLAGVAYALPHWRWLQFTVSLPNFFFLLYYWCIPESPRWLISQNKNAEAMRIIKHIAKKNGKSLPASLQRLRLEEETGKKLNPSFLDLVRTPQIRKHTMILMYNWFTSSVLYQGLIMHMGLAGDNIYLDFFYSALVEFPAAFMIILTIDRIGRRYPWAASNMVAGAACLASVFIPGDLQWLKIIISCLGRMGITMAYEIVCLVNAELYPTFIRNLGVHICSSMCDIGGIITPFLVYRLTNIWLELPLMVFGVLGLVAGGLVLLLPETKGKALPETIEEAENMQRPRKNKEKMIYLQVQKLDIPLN

OCT2 [2] = molecular target: T1, OCT2; test: OCT2 inhibitor (IC50) assessment, MPP+ uptake in transfected HEK cells; conditions: 5 μM MPP+ + 300 μM Imipramine
human hepatocytes = conditions: 72 h, 100 µM
Protocol: Plateable and inducible cryopreserved human hepatocytes were thawed and isolated in human hepatocyte thawing medium. […] After attachment (4 hours), the medium was changed to fresh hepatocyte culture medium for overnight cell recovery. […] A positive control (100 μM chlorpromazine) was treated in parallel. […] The absorbance of formazan, which is proportional to the number of viable cells, was measured spectrophotometrically using the CellTiter 96® AQueous One Solution Cell Proliferation Assay (MTS).

CYP2B6 [3] = molecular target: T2, CYP2B6 (Homo sapiens, UniProt P20813); test: Inhibition of CYP2B6 activity in human liver microsomes; assay type: in vitro ADME; set-up: co-incubated with pooled HLM (0.25 mg protein/mL); from tissue; host or cells: pooled human liver microsomes
T2 sequence (P20813 1-491): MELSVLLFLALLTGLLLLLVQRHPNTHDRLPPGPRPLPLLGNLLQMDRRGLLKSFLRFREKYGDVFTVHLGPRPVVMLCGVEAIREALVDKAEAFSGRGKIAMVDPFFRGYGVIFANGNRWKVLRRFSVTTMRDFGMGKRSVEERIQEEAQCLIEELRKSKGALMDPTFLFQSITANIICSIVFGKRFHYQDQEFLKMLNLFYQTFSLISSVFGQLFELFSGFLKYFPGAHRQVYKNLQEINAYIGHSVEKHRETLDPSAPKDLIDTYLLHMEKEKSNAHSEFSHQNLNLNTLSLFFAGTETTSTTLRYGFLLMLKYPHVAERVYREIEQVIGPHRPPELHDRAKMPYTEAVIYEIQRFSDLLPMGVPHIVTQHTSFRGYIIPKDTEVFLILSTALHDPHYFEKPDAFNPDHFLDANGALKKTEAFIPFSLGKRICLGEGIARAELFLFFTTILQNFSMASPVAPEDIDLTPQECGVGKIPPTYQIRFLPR

CYP2B6 [4] = molecular target: T2, CYP2B6; test: Time-dependent inhibition (TDI) of CYP in HLM, 30 min pre-incubation ±NADPH; conditions: microsomes, pH 7.4, % of Control Enzyme Activity
Protocol: CYP TDI was evaluated by a 30-minute pre-incubation of the TA with HLM in the presence and absence of NADPH followed by the CYP enzyme activity assay. […] The total organic solvent content in the final incubation was less than 1% (DMSO ≤0.1%, other organic solvent ≤1%). The CYP reactions were initiated by adding an individual CYP probe substrate with (when NADPH was not added in the pre-incubation step) or without (when NADPH was added in the pre-incubation step) the addition of NADPH (1 mM). The reaction mixture was incubated at 37° C. for 10-30 minutes depending on the individual CYP isoform (Table 24). The reaction was terminated with ice-cold acetonitrile (ACN) containing an internal standard (IS, stable isotope-labeled CYP probe metabolite). Negative (vehicle) controls were conducted using the incubation mixture without the TA. Positive controls were performed in parallel using known CYP time-dependent inhibitors. […] The formation of individual CYP probe metabolites was determined by LC-MS/MS.
The enzyme activity was expressed as the peak area ratio of CYP probe metabolite to IS, measured by LC-MS/MS.

hrCYP2C9 = hrCYP2C9 (Homo sapiens, UniProt P11712)
[5] = CYP reaction phenotyping: CYP control (negative control without CYP enzymes); conditions: pH 7.4
Protocol: The reaction was initiated by the addition of NADPH, followed by incubation at 37° C.

CYP2C9 [6] = molecular target: T3, CYP2C9 (Homo sapiens, UniProt P11712); conditions: 4 μM, pH 7.4
Protocol: The remaining of TA (expressed as the peak area ratio of test article to IS) was determined by LC-MS/MS. CYP enzyme activities of the HLM were verified in parallel by determining the formation of individual CYP probe metabolites by LC-MS/MS using standard curves.

CYP2D6 = CYP2D6 (Homo sapiens, UniProt P10635); test: Inhibition of CYP2D6 activity in human liver microsomes; assay type: in vitro ADME; set-up: co-incubated with pooled HLM (0.25 mg protein/mL); from tissue; host or cells: pooled human liver microsomes; conditions: pooled human liver microsomes, pH 7.4, read-out: % of Control Enzyme Activity (n = 3) Average
MATE2K [7] = molecular target: T4, MATE2K (Homo sapiens, UniProt Q86VL8); test: MATE2K inhibitor (IC50) assessment, metformin uptake in transfected HEK cells; conditions: 50 μM Metformin + 1 μM Pyrimethamine
MATE2K [8] = molecular target: T4, MATE2K; test: in vitro; conditions: probe metformin (50 μM)
hrCYP3A4 = hrCYP3A4 (Homo sapiens, UniProt P08684); test: Formation of CYP probe metabolites in hrCYPs; assay type: in vitro ADME; conditions: Formation rate(hrCYP)/Formation rate(Negative Control)
CYP2C9 [9] = molecular target: T3, CYP2C9; test: Inhibition of CYP2C9 activity in human liver microsomes
Protocol: CYP enzyme activity was determined by measuring the formation of each CYP probe metabolite by LC-MS/MS.
The total organic solvent content in the final incubation was less than 1% (DMSO ≤0.1%, other organic solvent ≤1%). […] The reaction was initiated by the addition of NADPH, followed by incubation at 37° C. for 10-30 minutes depending on the individual CYP isoform. The reaction was terminated by the addition of two volumes of ice-cold acetonitrile (ACN) containing an internal standard (IS, stable isotope-labeled CYP probe metabolite). Negative (vehicle) controls were conducted without TA. Positive controls were performed in parallel using known CYP inhibitors. […] The formation of individual CYP probe metabolites was determined by LC-MS/MS.
The enzyme activity was expressed as the peak area ratio of probe metabolite to IS, measured by LC-MS/MS.

CYP2C8 = molecular target: T5, CYP2C8 (Homo sapiens, UniProt P10632); test: Inhibition of CYP2C8 activity in human liver microsomes; assay type: in vitro ADME; set-up: co-incubated with pooled HLM (0.25 mg protein/mL); from tissue; host or cells: pooled human liver microsomes
T5 sequence (P10632 1-490): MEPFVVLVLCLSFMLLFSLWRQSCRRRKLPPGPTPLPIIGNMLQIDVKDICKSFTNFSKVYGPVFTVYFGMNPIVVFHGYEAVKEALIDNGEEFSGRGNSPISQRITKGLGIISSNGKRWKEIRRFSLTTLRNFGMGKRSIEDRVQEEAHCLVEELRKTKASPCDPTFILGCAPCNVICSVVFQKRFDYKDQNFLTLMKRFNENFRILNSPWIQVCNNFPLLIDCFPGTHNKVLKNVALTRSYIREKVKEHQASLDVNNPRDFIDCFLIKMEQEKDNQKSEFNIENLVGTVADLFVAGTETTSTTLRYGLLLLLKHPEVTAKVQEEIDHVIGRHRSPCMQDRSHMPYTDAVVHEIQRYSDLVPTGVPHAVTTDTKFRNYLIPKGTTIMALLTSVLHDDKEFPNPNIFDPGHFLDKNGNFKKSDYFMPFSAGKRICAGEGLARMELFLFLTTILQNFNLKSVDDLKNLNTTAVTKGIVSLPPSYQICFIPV
Protocol: […]. […] Negative (vehicle) controls were conducted without TA.

OAT3 [10] = molecular target: T6, OAT3 (Homo sapiens, UniProt Q8TCC7); test: OAT3 inhibitor (IC50) assessment, furosemide uptake in transfected HEK cells; conditions: 5 μM Furosemide + 100 μM Probenecid
T6 sequence (Q8TCC7 1-542): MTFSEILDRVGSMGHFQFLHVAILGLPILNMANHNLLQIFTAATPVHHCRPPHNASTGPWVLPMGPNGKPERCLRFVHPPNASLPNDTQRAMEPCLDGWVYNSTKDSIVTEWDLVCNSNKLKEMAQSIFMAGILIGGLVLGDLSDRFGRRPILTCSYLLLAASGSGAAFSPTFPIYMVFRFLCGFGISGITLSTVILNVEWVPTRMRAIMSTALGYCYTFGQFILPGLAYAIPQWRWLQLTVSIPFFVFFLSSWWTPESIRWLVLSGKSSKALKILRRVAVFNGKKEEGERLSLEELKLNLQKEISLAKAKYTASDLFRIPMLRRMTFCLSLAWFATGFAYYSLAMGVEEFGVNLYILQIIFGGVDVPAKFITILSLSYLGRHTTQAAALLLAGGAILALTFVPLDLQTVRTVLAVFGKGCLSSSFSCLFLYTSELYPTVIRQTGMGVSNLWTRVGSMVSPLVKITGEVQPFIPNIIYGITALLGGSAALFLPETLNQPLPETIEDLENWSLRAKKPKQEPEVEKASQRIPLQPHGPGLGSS

OAT3 [11] = molecular target: T6, OAT3; test: in vitro; conditions: probe furosemide (5 μM)

Chain of hrCYP2C9 (P11712 whole entry): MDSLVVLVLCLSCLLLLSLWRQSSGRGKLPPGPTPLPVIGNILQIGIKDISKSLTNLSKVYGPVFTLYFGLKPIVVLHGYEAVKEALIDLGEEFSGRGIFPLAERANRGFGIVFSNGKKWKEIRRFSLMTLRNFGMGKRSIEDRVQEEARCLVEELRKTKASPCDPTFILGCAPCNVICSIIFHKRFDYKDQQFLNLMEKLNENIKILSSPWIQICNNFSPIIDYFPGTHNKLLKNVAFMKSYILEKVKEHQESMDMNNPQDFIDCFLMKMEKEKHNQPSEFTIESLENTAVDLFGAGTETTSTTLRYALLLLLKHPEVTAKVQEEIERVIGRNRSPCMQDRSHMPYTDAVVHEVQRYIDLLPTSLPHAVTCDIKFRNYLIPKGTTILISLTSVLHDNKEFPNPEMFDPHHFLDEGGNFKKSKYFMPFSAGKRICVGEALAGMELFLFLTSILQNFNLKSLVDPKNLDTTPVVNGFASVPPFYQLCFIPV
T3 sequence (P11712 whole entry): as above
T4 sequence (Q86VL8 1-566 isoform Q86VL8-3): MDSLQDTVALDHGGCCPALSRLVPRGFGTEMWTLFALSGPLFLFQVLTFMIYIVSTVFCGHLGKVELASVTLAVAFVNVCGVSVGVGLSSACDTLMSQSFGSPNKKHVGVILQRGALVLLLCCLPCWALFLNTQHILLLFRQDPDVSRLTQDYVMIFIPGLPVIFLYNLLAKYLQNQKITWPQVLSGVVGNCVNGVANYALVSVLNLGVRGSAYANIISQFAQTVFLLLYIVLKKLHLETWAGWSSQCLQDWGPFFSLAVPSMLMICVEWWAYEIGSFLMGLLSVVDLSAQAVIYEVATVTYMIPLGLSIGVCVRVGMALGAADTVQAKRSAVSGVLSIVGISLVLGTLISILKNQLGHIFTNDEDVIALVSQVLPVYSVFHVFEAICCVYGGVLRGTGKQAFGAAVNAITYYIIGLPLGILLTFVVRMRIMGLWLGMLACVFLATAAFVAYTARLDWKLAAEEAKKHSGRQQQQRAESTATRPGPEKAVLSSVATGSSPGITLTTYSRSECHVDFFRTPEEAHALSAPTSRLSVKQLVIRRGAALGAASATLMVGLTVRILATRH
Chain of hrCYP3A4 (P08684 whole entry): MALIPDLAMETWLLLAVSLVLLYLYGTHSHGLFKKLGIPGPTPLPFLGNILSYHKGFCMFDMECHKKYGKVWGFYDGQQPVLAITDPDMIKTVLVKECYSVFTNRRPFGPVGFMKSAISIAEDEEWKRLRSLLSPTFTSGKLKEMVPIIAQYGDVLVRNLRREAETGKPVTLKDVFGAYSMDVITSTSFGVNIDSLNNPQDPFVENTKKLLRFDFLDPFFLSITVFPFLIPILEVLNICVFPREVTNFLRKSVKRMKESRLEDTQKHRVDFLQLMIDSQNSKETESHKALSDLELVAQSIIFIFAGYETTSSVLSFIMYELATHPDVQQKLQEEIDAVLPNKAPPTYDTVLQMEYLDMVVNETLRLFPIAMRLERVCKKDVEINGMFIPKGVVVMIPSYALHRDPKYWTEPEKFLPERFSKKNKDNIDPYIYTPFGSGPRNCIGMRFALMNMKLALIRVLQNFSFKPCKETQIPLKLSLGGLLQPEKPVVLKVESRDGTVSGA
Chain of CYP2D6 (P10635 whole entry): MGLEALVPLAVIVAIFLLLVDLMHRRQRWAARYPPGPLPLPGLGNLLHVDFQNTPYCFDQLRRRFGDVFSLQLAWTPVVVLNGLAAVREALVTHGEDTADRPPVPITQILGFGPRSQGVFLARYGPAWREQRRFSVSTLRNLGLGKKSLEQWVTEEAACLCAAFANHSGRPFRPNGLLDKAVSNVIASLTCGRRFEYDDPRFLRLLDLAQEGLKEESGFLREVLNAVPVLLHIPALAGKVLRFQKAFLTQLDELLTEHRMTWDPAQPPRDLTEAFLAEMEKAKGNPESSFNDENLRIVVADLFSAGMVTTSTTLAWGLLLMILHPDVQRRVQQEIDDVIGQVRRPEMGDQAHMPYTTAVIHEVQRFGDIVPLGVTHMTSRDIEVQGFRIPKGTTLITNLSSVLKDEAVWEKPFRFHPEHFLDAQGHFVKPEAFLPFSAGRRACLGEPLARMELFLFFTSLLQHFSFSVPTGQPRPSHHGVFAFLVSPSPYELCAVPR

CN(C)CCCN1c2ccccc2CCc2ccccc21 [imipramine]
inhibition at 300 μM (OCT2 [1]): 97.9%
Percentage Inhibition of OCT2 (OCT2 [2]): 97.9%

CN(C)CCCN1c2ccccc2Sc2ccc(Cl)cc21 [Chlorpromazine, chlorpromazine]
% MTS Absorbance Relative to Vehicle Control (human hepatocytes): 24.3%
Formazan Absorbance (n = 3) Mean (human hepatocytes): 0.160

S=P(N1CC1)(N1CC1)N1CC1 [Thio-TEPA]
% of Control Enzyme Activity (n = 3) Average (CYP2B6 [3]; Thio-TEPA 3.33 μM): 66.9%
% of Control Enzyme Activity (n = 3) Average (CYP2B6 [3]; Thio-TEPA 10.0 μM): 44.1%
% of Control Enzyme Activity (n = 3) Average (CYP2B6 [3]; Thio-TEPA 30.0 μM): 26.7%
activity at 30 min, 3.33 µM (CYP2B6 [4]; +NADPH 30 min, 3.33 μM): 35.5%
activity at 30 min, 10 µM (CYP2B6 [4]; +NADPH 30 min): 18.3%
activity at 30 min, 30 µM (CYP2B6 [4]; +NADPH 30 min): 11.6%
activity at 30 min, 10 µM (CYP2B6 [4]; −NADPH 30 min): 76.7%
activity at 30 min, 30 µM (CYP2B6 [4]; −NADPH 30 min): 54.8%

O=C(O)Cc1ccccc1Nc1c(Cl)cccc1Cl [Diclofenac]
Formation Rate Ratio (hrCYP2C9): >>2
Formation Rate (hrCYP2C9; human, 20 min, 6 μM, pH 7.4): 845 pmol metabolite/min/mg Supersome protein
Measured Metabolite (hrCYP2C9; human, 20 min, 6 μM, pH 7.4): 1.56 µM
Formation Rate [5]: 0 pmol metabolite/min/mg Supersome protein
Measured Metabolite [5]: 0 µM
Formation Rate Ratio (CYP2C9 [6]): 7.7

C=C[C@H]1C[N@@]2CC[C@H]1C[C@@H]2[C@@H](O)c1ccnc2ccc(OC)cc12 [Quinidine]
activity at 10 μM (CYP2D6): 5.61%

CCc1nc(N)nc(N)c1-c1ccc(Cl)cc1 [pyrimethamine]
Percentage Inhibition of MATE2K (MATE2K [7]): 85.3%
inhibition at 1 μM (MATE2K [8]): 85.3%

C[C@]12CC[C@H]3[C@@H](CCC4=CC(=O)CC[C@@]43C)[C@@H]1CC[C@@H]2O [Testosterone, reference compound]
Formation Rate [5]: 0 pmol metabolite/min/mg Supersome protein
Measured Metabolite [5]: 0 µM
Formation Rate Ratio (hrCYP3A4): >>2

Nc1ccc(S(=O)(=O)Nc2ccnn2-c2ccccc2)cc1 [Sulfaphenazole]
% of Control Enzyme Activity (n = 3) Average (CYP2C9 [9]; Sulfaphenazole 3.33 μM): 23.8%
% of Control Enzyme Activity (n = 3) Average (CYP2C9 [9]; Sulfaphenazole 10.0 μM): 14.9%

CC(C)(O)c1ccccc1CC[C@@H](SCC1(CC(=O)O)CC1)c1cccc(/C=C/c2ccc3ccc(Cl)cc3n2)c1 [Montelukast]
activity at 3.33 μM (CYP2C8; human, microsomes, pH 7.4): 14.6%
activity at 10 μM (CYP2C8; human, microsomes, pH 7.4): 5.31%
IC50 (CYP2C8; positive inhibitor, HLM): 517 nM

Cc1ncc2n1-c1ccc(Cl)cc1C(c1ccccc1F)=NC2 [Midazolam, reference compound]
Formation Rate [5]: 0 pmol metabolite/min/mg Supersome protein
Measured Metabolite [5]: 0 µM
Formation Rate Ratio (hrCYP3A4): >>2

CCCN(CCC)S(=O)(=O)c1ccc(C(=O)O)cc1 [probenecid]
Percentage Inhibition of OAT3 (OAT3 [10]): 99.1%
inhibition at 100 μM (OAT3 [11]): 99.1%
